# Read-outs that look alike come from different tables or passages of the source.
# What was measured:
# NAT-2 [1] = biological target: T1, NAT-2 (Homo sapiens, UniProt P11245); test: Acetylation in human hepatocyte culture, NAT-2 substrates; type: cell-based; conditions: human hepatocytes
# T1 sequence (P11245 1-290): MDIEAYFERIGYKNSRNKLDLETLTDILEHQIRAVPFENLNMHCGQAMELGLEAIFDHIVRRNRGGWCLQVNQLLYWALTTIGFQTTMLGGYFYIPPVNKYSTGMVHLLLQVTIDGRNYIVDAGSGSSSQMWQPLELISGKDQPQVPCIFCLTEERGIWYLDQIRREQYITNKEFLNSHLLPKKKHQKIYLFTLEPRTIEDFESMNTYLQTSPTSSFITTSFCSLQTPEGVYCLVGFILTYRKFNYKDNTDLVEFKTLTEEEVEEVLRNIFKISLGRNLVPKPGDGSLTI
# Method: INH, DDS and SMZ were incubated with human hepatocytes as described in Example 1. Parallel cultures were conducted for each drug alone and each drug plus dichlorphenamide as a potential inhibitor. An additional culture of DDS was incubated with SMZ, a potential inhibitor. […] In addition, SMZ inhibited acetylation of DDS.
# NAT-2 [2] = biological target: T1, NAT-2; test: Acetylation in human liver subcellular preparation (cytosol), NAT-2 substrates, cross inhibition; type: biochemical; parameters: from tissue; host or cells: human liver cytosol (105,000 g supernatant); key to inhibition of acetylation of substrate DDS / inhibition of acetylation of substrate SMZ / inhibition of acetylation of substrate INH: ++ = strong inhibition; −− = no inhibition; conditions: for formation of acetylated metabolite, substrate incubated alone: incubated separately with human liver cytosol
# Method: The reaction was terminated by the addition of perchloric acid to a final concentration of 1.5%.
# INH, DDS, SMZ were incubated with human liver subcellular preparations as described in Example 1. The reactions were allowed to proceed for thirty minutes at 37° C. before termination by addition of perchloric acid. […] For INH, 1-octanesulfonic acid (5 mM) was added to the mobile phase.
# NAT-1 [3] = biological target: T2, NAT-1 (Homo sapiens, UniProt P18440); test: Acetylation in human liver subcellular preparation (cytosol), NAT-1 substrates, HPLC of N-acetylated metabolites
# T2 sequence (P18440 1-290): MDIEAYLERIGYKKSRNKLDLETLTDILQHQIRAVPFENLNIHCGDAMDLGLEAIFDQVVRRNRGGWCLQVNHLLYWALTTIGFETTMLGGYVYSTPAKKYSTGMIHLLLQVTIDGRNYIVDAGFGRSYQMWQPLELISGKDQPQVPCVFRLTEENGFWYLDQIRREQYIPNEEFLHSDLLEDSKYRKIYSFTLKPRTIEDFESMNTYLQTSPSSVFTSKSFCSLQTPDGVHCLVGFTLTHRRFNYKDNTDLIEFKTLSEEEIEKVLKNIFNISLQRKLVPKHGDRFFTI
# Method: Human liver was homogenized and prepared by high-speed differential centrifugation. A preliminary centrifugation was performed at 13,000 g for 20 min.
# The formation of N-acetylated metabolites was quantified by HPLC. Samples from the incubates were injected onto a reverse-phase column (e.g., Waters Symmetry C18, 5 micron, 4.6×150 mm). […] Drugs and their N-acetylated metabolites were quantitated by UV absorption using a diode-array detector.
# The substrates assayed above were then co-incubated with human liver subcellular preparations.
# NAT-1 [4] = biological target: T2, NAT-1; conditions: human volunteer
# Method: On the fourth and fifth days, PAS was also administered at its standard dose of 4 g every 8 hours.
# NAT-1 [5] = biological target: T2, NAT-1; conditions: 4 hours
# Method: Human hepatocytes were incubated at 37° C. at a ratio of 1 million cells per ml in modified Williams E buffer. Either cryopreserved hepatocytes in suspension or freshly-isolated hepatocytes attached to microtiter plates were used. The reaction was initiated by addition of substrate, and terminated after 4 hours by the addition of perchloric acid. As before, parallel incubations were conducted for drug alone versus drug plus potential inhibitors. Percent inhibition was calculated from the ratio of [Acetylated metabolite]/[parent] with and without the potential inhibitor.
# [6] = human liver cytosol, 30 min, 37° C.
structure (smiles),measurement,setting,value
"Cc1cc(C)nc(NS(=O)(=O)c2ccc(N)cc2)n1 [SMZ, sulphamethazine]",inhibition of acetylation of DDS,NAT-2 [1]; substrate DDS,inhibited
same,"formation of acetylated metabolite, substrate incubated alone",NAT-2 [2],Acetylated metabolites were found
same,inhibition of acetylation of substrate DDS,NAT-2 [2]; [6],++
"Nc1ccc(S(=O)(=O)c2ccc(N)cc2)cc1 [DDS, dapsone]","formation of acetylated metabolite, substrate incubated alone",NAT-2 [2],Acetylated metabolites were found
"CCC1(c2ccc(N)cc2)CCC(=O)NC1=O (stereo not shown) [AG, aminoglutethimide]",inhibition of acetylation of substrate SMZ,NAT-2 [2]; [6],++
NS(=O)(=O)c1cc(Cl)c(Cl)c(S(N)(=O)=O)c1 [dichlorphenamide],"inhibition of acetylation of all substrates (INH, DDS, SMZ)","NAT-2 [1]; substrates INH, DDS and SMZ",strongly inhibited
same,inhibition of acetylation of substrate DDS,NAT-2 [2]; [6],++
same,inhibition of acetylation of substrate INH,"NAT-2 [2]; substrate INH, human liver cytosol, 30 min, 37° C.",−−
same,inhibition of acetylation of substrate SMZ,NAT-2 [2]; [6],++
"NNC(=O)c1ccncc1 [INH, isoniazid]","formation of acetylated metabolite, substrate incubated alone",NAT-2 [2],Acetylated metabolites were found
same,inhibition of acetylation of substrate DDS,NAT-2 [2]; [6],++
"Nc1ccc(C(=O)O)cc1 [PABA, para-amino-benzoic acid]",inhibition of acetylation to Ac-PAS,"NAT-1 [3]; 200 μM inhibitor co-incubated with 20 μM PAS, human liver cytosol, 15 min, 37° C.",no Ac-PAS was detected
"Nc1ccc(C(=O)O)c(O)c1 [PAS, para-amino-salicylate]",inhibition of acetylation to Ac-PABA,"NAT-1 [3]; 200 μM inhibitor co-incubated with 20 μM PABA, human liver cytosol, 15 min, 37° C.",blockage of all measurable acetylation
same,inhibition of acetylation to Ac-SMX,"NAT-1 [3]; 200 μM inhibitor co-incubated with 200 μM SMX, human liver cytosol, 15 min, 37° C.",50%
same,"formation of acetylated metabolite, substrate incubated alone","NAT-1 [3]; human liver subcellular preparation, HPLC, FIG. 1",a single metabolic peak
same,PAS concentrations in plasma on Day 5,"NAT-1 [4]; PAS 4 g every 8 hours, HPLC, FIG. 5",exceed the levels required to inhibit NAT-1
same,"plasma concentration of Ac-SMX, Day 5 (with PAS) vs Day 3 (baseline)","NAT-1 [4]; SMX 500 mg every 12 hours for 5 days, PAS 4 g every 8 hours on days 4 and 5, FIG. 2",almost completely abolished
same,reduction of Ac-SMX formation,"NAT-1 [5]; 200 μM PAS co-incubated with 200 μM SMX, human hepatocytes",60%
same,"formation of acetylated metabolite, substrate incubated alone",NAT-1 [5]; 200 μM incubated separately with human hepatocytes,formation of Ac-PAS and Ac-SMX

# — patent US6423696B1, “Inhibition of arylamine N-acetyl transferase” (The United States of America, as represented by the …, priority 1999, dated 2002)
